Data taken from US20250276007A1, “CARBAMOYLPHENYLBORONIC ACID-CONTAINING ACRYLIC MONOMERS AND USES THEREOF” (Alcon Inc., priority 2024, published 2025).
Like-named read-outs stand apart in the source and are kept apart here.

Assay: pKa of boronic acid monomer
Format: physicochemical
Settings: monomer forming the repeating units of the copolymer

pKa (read-out: pKa)	Structure (SMILES)	pKa
~8.1	C=CC(=O)Nc1cccc(B(O)O)c1 [APBA, 3-(acrylamido)phenylboronic acid]	
	C=CC(=O)NCCNC(=O)c1ccc(B(O)O)cc1Cl [CPBA]	about 7.2
